The text below walks through data of patent US20230077362A1 (CORTEVA AGRISCIENCE LLC, priority 2019, published 2023).

Read-outs that look alike come from different tables or passages of the source.

For experiment [1], the system named is Beet Armyworm (Spodoptera exigua) ("BAW"), second instar larvae. The experiment in a line: Bioassay on beet armyworm (BAW), 128-well diet tray assay. Type of experiment: in vivo. The settings on record: for pest or weed control at 50 µg/cm2: Spodoptera exigua; for BAW rating: Table ABC, species BAW, C = not tested, D = no activity noticed. On the procedure:
(§1) Certain molecules disclosed in this document were tested against BAW and CL using procedures described in the following examples. In the reporting of the results, the “BAW & CL Rating Table” was used (See Table Section).
(§2) Trays were covered with a clear self-adhesive cover and held at 25° C., 14:10 light-dark cycle for five to seven days. Percent mortality was recorded for the larvae in each well; activity in the eight wells was then averaged. The results are indicated in the table entitled “Table ABC: Biological Results” (See Table Section).

Experiment [2] concerns Cabbage Looper (Trichoplusia ni) ("CL"), second instar larvae. Briefly: Bioassay on cabbage looper (CL), 128-well diet tray assay. The format is in vivo. The settings on record: for pest or weed control at 50 µg/cm2: Trichoplusia ni; for CL rating: Table ABC, species CL, C = not tested, D = no activity noticed. On the procedure:
as §1, §2

Where [3] appears, read: read-out: BAW (Biological Results, rating).
Setting [4] is: read-out: CL (Biological Results, rating).

Consider `CCCc1ccc(N(C)C)cc1N1C(=O)CS/C1=N\C(=O)Nc1ccc(-c2ncn(-c3ccc(S(=O)(=O)C(F)(F)F)cc3)n2)cc1F` [Compound J370, (Z)-1-(3-(5-(Dimethylamino)-2-propylphenyl)-4-oxothiazolidin-2-ylidene)-3-(2-fluoro-4-(1-(4-((trifluoromethyl)sulfonyl)phenyl)-1H-1,2,4-triazol-3-yl)phenyl)urea], for which the pest or weed control at 50 µg/cm2 in experiment [1] (read-out: BAW rating) and in experiment [2] (read-out: CL rating) was 50 to 100% each time.

On to `CC(=O)c1cc(-c2ncn(-c3ccc(OC(F)(F)F)cc3)n2)ccc1NC(=O)/N=C1\SCC(=O)N1c1cc(N(C)C)ccc1C(C)C` [Compound J396, (Z)-1-(2-Acetyl-4-(1-(4-(trifluoromethoxy)phenyl)-1H-1,2,4-triazol-3-yl)phenyl)-3-(3-(5-(dimethylamino)-2-isopropylphenyl)-4-oxothiazolidin-2-ylidene)urea], for which the pest or weed control at 50 µg/cm2 in experiment [1] (read-out: BAW rating) and in experiment [2] (read-out: CL rating) was 50 to 100% in each case.

On to `CC(C)c1ccc(N(C)C)cc1N1C(=O)CS/C1=N\C(=O)Nc1ccc(-c2ncn(-c3ccc(C#N)cc3)n2)cc1F` [Compound J290, (Z)-1-(4-(1-(4-Cyanophenyl)-1H-1,2,4-triazol-3-yl)-2-fluorophenyl)-3-(3-(5-(dimethylamino)-2-isopropylphenyl)-4-oxothiazolidin-2-ylidene)urea], for which the pest or weed control at 50 µg/cm2 in experiment [1] (setting [3]) and in experiment [2] (setting [4]) was 50 to 100% in each case.

On to `CN(C)c1ccc(C(F)(F)F)c(N2C(=O)CS/C2=N\C(=O)Nc2ccc(-c3ncn(-c4ccc(OC(F)(F)F)cc4)n3)cc2F)c1` [Compound J182, (Z)-1-(3-(5-(Dimethylamino)-2-(trifluoromethyl)phenyl)-4-oxothiazolidin-2-ylidene)-3-(2-fluoro-4-(1-(4-(trifluoromethoxy)phenyl)-1H-1,2,4-triazol-3-yl)phenyl)urea], for which the pest or weed control at 50 µg/cm2 in experiment [1] (setting [3]) and in experiment [2] (setting [4]) was 50 to 100% each time.

With `Cc1ccc(COCC(F)(F)F)c(N2C(=O)CS/C2=N\C(=O)Nc2ccc(-n3cnc(-c4ccc(OC(F)(F)F)cc4)n3)cc2C)c1` [Compound J442, (Z)-1-(3-(5-Methyl-2-((2,2,2-trifluoroethoxy)methyl)phenyl)-4-oxothiazolidin-2-ylidene)-3-(2-methyl-4-(3-(4-(trifluoromethoxy)phenyl)-1H-1,2,4-triazol-1-yl)phenyl)urea], the pest or weed control at 50 µg/cm2 in experiment [1] (read-out: BAW rating) and in experiment [2] (read-out: CL rating) was 50 to 100% throughout.

For `Cc1ccc(OCCC(F)(F)F)c(N2C(=O)CS/C2=N\C(=O)Nc2ccc(-c3cn(-c4ccc(C(F)(F)F)cn4)cn3)cc2)c1` [Compound J522, (Z)-1-(3-(5-Methyl-2-(3,3,3-trifluoropropoxy)phenyl)-4-oxothiazolidin-2-ylidene)-3-(4-(1-(5-(trifluoromethyl)pyridin-2-yl)-1H-imidazol-4-yl)phenyl)urea], the pest or weed control at 50 µg/cm2 in experiment [1] (read-out: BAW rating) and in experiment [2] (read-out: CL rating) was 50 to 100% throughout.

Take `Cc1ccc(COCC(F)(F)F)c(N2C(=O)CS/C2=N\C(=O)Nc2ccc(-c3ncn(-c4ccc(OC(F)(F)F)cc4)n3)cc2C#N)c1` [Compound J245, (Z)-1-(2-Cyano-4-(1-(4-(trifluoromethoxy)phenyl)-1H-1,2,4-triazol-3-yl)phenyl)-3-(3-(5-methyl-2-((2,2,2-trifluoroethoxy)methyl)phenyl)-4-oxothiazolidin-2-ylidene)urea]: the pest or weed control at 50 µg/cm2 in experiment [1] (setting [3]) and in experiment [2] (setting [4]) was 50 to 100% in each case.

Regarding `Cc1ccc(CC(F)(F)F)c(N2C(=O)CS/C2=N\C(=O)NCCc2ccc(-c3ncn(-c4ccc(OC(F)(F)F)cc4)n3)cc2)c1` [Compound H12], the pest or weed control at 50 µg/cm2 in experiment [1] (setting [3]) and in experiment [2] (setting [4]) was 50 to 100% each time.

For `Cc1cc(COCC(F)(F)F)c(N2C(=O)CS/C2=N\C(=O)Nc2ccc(-c3ncn(-c4ccc(S(F)(F)(F)(F)F)cc4)n3)cc2C#N)cc1C` [Compound J587, (Z)-1-(2-Cyano-4-(1-(4-(pentafluoro-λ^6-sulfaneyl)phenyl)-1H-1,2,4-triazol-3-yl)phenyl)-3-(3-(4,5-dimethyl-2-((2,2,2-trifluoroethoxy)methyl)phenyl)-4-oxothiazolidin-2-ylidene)urea], the pest or weed control at 50 µg/cm2 in experiment [1] (read-out: BAW rating) and in experiment [2] (read-out: CL rating) was 50 to 100% in each case.

For `Cc1ccc(OCCC(F)(F)F)c(N2C(=O)CS/C2=N\C(=O)Nc2ccc(-c3cn(-c4ccc(C(F)(F)F)cc4)cn3)cc2)c1` [Compound J517, (Z)-1-(3-(5-Methyl-2-(3,3,3-trifluoropropoxy)phenyl)-4-oxothiazolidin-2-ylidene)-3-(4-(1-(4-(trifluoromethyl)phenyl)-1H-imidazol-4-yl)phenyl)urea], the pest or weed control at 50 µg/cm2 in experiment [1] (read-out: BAW rating) and in experiment [2] (read-out: CL rating) was 50 to 100% each time.

As to `CCOC(C)c1ccc(C)cc1N1C(=O)CS/C1=N\C(=O)Nc1ccc(-c2ncn(-c3ccc(S(F)(F)(F)(F)F)cc3)n2)cc1C#N` (stereo not drawn) [Compound J586, (Z)-1-(2-Cyano-4-(1-(4-(pentafluoro-λ^6-sulfaneyl)phenyl)-1H-1,2,4-triazol-3-yl)phenyl)-3-(3-(2-(1-ethoxyethyl)-5-methylphenyl)-4-oxothiazolidin-2-ylidene)urea], the pest or weed control at 50 µg/cm2 in experiment [1] (read-out: BAW rating) and in experiment [2] (read-out: CL rating) was 50 to 100% throughout.

Turning to `COC(C)c1ccc(C)cc1N1C(=O)CS/C1=N\C(=O)Nc1ccc(-c2ncn(-c3ccc(C(F)(F)F)cn3)n2)cc1` (stereo not drawn) [Compound J338, (Z)-1-(3-(2-(1-Methoxyethyl)-5-methylphenyl)-4-oxothiazolidin-2-ylidene)-3-(4-(1-(5-(trifluoromethyl)pyridin-2-yl)-1H-1,2,4-triazol-3-yl)phenyl)urea], the pest or weed control at 50 µg/cm2 in experiment [1] (setting [3]) and in experiment [2] (setting [4]) was 50 to 100% throughout.

Consider `COC(C)c1ccc(C)cc1N1C(=O)CS/C1=N\C(=O)Nc1ccc(-c2noc(-c3ccc(OC(F)(F)F)cc3)n2)cc1F` (stereo not drawn) [Compound J426, (Z)-1-(2-Fluoro-4-(5-(4-(trifluoromethoxy)phenyl)-1,2,4-oxadiazol-3-yl)phenyl)-3-(3-(2-(1-methoxyethyl)-5-methylphenyl)-4-oxothiazolidin-2-ylidene)urea], for which the pest or weed control at 50 µg/cm2 in experiment [1] (read-out: BAW rating) and in experiment [2] (read-out: CL rating) was 50 to 100% throughout.

In the case of `COC(c1ccc(C)cc1N1C(=O)CS/C1=N\C(=O)Nc1ccc(-n2cnc(-c3ccc(OC(F)(F)F)cc3)n2)cc1C)C(F)(F)F` (stereo not drawn) [Compound J443, (Z)-1-(3-(5-Methyl-2-(2,2,2-trifluoro-1-methoxyethyl)phenyl)-4-oxothiazolidin-2-ylidene)-3-(2-methyl-4-(3-(4-(trifluoromethoxy)phenyl)-1H-1,2,4-triazol-1-yl)phenyl)urea], the pest or weed control at 50 µg/cm2 in experiment [1] (read-out: BAW rating) and in experiment [2] (read-out: CL rating) was 50 to 100% each time.

With `O=C(/N=C1\SCC(=O)N1c1cc(F)ccc1COCC(F)(F)F)Nc1ccc(-n2cnc(-c3ccc(C(F)(F)F)cc3)n2)cc1F` [Compound J699, (Z)-1-(3-(5-Fluoro-2-((2,2,2-trifluoroethoxy)methyl)phenyl)-4-oxothiazolidin-2-ylidene)-3-(2-fluoro-4-(3-(4-(trifluoromethyl)phenyl)-1H-1,2,4-triazol-1-yl)phenyl)urea], the pest or weed control at 50 µg/cm2 in experiment [1] (read-out: BAW rating) and in experiment [2] (read-out: CL rating) was 50 to 100% throughout.

As to `COC(c1ccc(C)cc1N1C(=O)CS/C1=N\C(=O)Nc1ccc(-c2ncn(-c3ccc([S+]([O-])C(F)(F)F)cc3)n2)cc1F)C(F)(F)F` (stereo not drawn) [Compound J386, (Z)-1-(2-Fluoro-4-(1-(4-((trifluoromethyl)sulfinyl)phenyl)-1H-1,2,4-triazol-3-yl)phenyl)-3-(3-(5-methyl-2-(2,2,2-trifluoro-1-methoxyethyl)phenyl)-4-oxothiazolidin-2-ylidene)urea], the pest or weed control at 50 µg/cm2 in experiment [1] (read-out: BAW rating) and in experiment [2] (read-out: CL rating) was 50 to 100% each time.

Consider `Cc1ccc(C(C)C)c(N2C(=O)CS/C2=N\C(=O)Nc2ccc(-c3ncn(-c4cccc(C(F)(F)F)c4)n3)cc2C)c1` [Compound J131, (Z)-1-(3-(2-Isopropyl-5-methylphenyl)-4-oxothiazolidin-2-ylidene)-3-(2-methyl-4-(1-(3-(trifluoromethyl)phenyl)-1H-1,2,4-triazol-3-yl)phenyl)urea], for which the pest or weed control at 50 µg/cm2 in experiment [1] (setting [3]) and in experiment [2] (setting [4]) was 50 to 100% each time.

Regarding `COC(C)c1ccc(C)cc1N1C(=O)CS/C1=N\C(=O)Nc1ccc(-c2ccn(-c3ccc(C(F)(F)F)nn3)n2)cc1F` (stereo not drawn) [Compound J381], the BAW rating entry in experiment [1] is on record as “A (50-100)”. Moreover, the CL rating entry in experiment [2] is “A (50-100)”.

With `Cc1ccc(Cc2ccccc2)c(N2C(=O)CS/C2=N\C(=O)Nc2ccc(-c3ncn(-c4ccc(OC(F)(F)F)cc4)n3)cc2F)c1` [Compound J457, (Z)-1-(3-(2-Benzyl-5-methylphenyl)-4-oxothiazolidin-2-ylidene)-3-(2-fluoro-4-(1-(4-(trifluoromethoxy)phenyl)-1H-1,2,4-triazol-3-yl)phenyl)urea], the pest or weed control at 50 µg/cm2 in experiment [1] (read-out: BAW rating) and in experiment [2] (read-out: CL rating) was 50 to 100% each time.

In the case of `Cc1ccc(COCC(Cl)Cl)c(N2C(=O)CS/C2=N\C(=O)Nc2ccc(-c3ncn(-c4ccc(OC(F)(F)F)cc4)n3)cc2F)c1` [Compound J553], the BAW rating result in experiment [1] is listed as “A (50-100)”. In experiment [2], the CL rating result was “A (50-100)”.

For `COc1ccc(C(C)C)c(N2C(=O)CS/C2=N\C(=O)Nc2ccc(-c3ncn(-c4ccc(C(F)(F)F)cn4)n3)cc2F)c1` [Compound J283, (Z)-1-(2-fluoro-4-(1-(5-(trifluoromethyl)pyridin-2-yl)-1H-1,2,4-triazol-3-yl)phenyl)-3-(3-(2-isopropyl-5-methoxyphenyl)-4-oxothiazolidin-2-ylidene)urea], the pest or weed control at 50 µg/cm2 in experiment [1] (setting [3]) and in experiment [2] (setting [4]) was 50 to 100% each time.
